Values of other authors as cited in US8163753B2, “2,3-dihydro-6-nitroimidazo (2,1-b) oxazole compounds for the treatment of tuberculosis” (priority 2003, dated 2012).

System: multi-drug-resistant Mycobacterium tuberculosis
Conditions: literature report; cited from earlier work

For `CCC1Cn2cc([N+](=O)[O-])nc2O1` (stereo not shown) [CGI-17341], the “bactericidal action to multi-drug-resistant Mycobacterium tuberculosis” value is listed as “has a bactericidal action”.
